This is an account of results in patent US8728797B2, “Yeast membrane protein expression system and its application in drug screening” (priority 2001, dated 2014).

Usually MIC80 stands for the lowest concentration that inhibits either 80% of growth or 80% of the strains tested, depending on the study. A word on the MIC: it is the least concentration at which growth counts as inhibited. Read a high MIC as weaker potency.

In brackets after ≈: the same amount, converted by molar mass. Marks after values point to notes of the source that are not given here.

The test system of one experiment is S. cerevisiae AD1-8u^−. The experiment is described as follows: MIC microdilution test, parental strain. It is filed as cell-based. The settings on record: Saccharomyces cerevisiae; AD1-8u^− parental strain; 30° C., 48 h, pH 7.0. As to the method:
(§1) The MICs of antifungal agents for S. cerevisiae cells were determined by a microdilution test based on the macrodilution reference method of the National Committee for Clinical Laboratory Standards. Cells (10 μl cell suspension, 2×10^5 cells/ml) were inoculated into 90 μl CSM-URA, buffered with 10 mM 2-(N-morpholino)ethanesulfonic acid (MES) and 18 mM N-2-hydroxyethylpiperazine-N′-2-ethanesulfonic acid (HEPES), pH 7.0 and containing 0.67% (w/v) yeast nitrogen base (YNB) in microtitre plate wells. For the uracil-requiring strain AD1-8u^− the medium was supplemented with 0.02% (w/v) uridine. The wells contained, in […], doubling dilutions of antifungal agents (final concentrations: fluconazole, 40-0.078 μg/ml; itraconazole and ketoconazole, 8-0.016 μg/ml). The microtitre plates were incubated at 30° C. for 48 h with shaking and then the growth of cells in individual wells (OD590) was measured with a microplate reader (EL 340, Bio-Tek, Winooski, Vt.). The MIC80 was the lowest concentration of drug that inhibited growth yield by at least 80% compared to a no-drug control.

Experiment [1] has as its system S. cerevisiae AD1002 expressing C. albicans Cdr1p. The experiment is described as follows: MIC microdilution test, strain expressing Cdr1p. The class given is cell-based. As to the method:
as §1

Another experiment concerns S. cerevisiae AD1-8/CDR2. Kind of experiment: MIC microdilution test, strain expressing Cdr2p. The class given is cell-based. To be noted: Saccharomyces cerevisiae, AD18/CDR2, 30° C. As to the method:
as §1
For orientation: In broth dilution the organism is exposed to a series of concentrations in liquid medium.

For experiment [2], the system named is AD-CDR1 (Cdr1p). The experiment is described as follows: MIC in liquid microdilution assay, AD-CDR1. It is filed as cell-based, S. cerevisiae. The settings on record: Saccharomyces cerevisiae. As to the method:
as §1

Experiment [3] deals with S. cerevisiae AD1-8u^− hyper-expressing CDR1-1. The experiment is described as follows: MIC, CDR1 allele 1 hyper-expressed. It is filed as cell-based. To be noted: Saccharomyces cerevisiae; hyper-expression of CDR1-1 allele. As to the method: as §1
For experiment [4], the system named is selected respiratory competent construct expressing Cdr1p. The experiment is described as follows: MIC, corrected Cdr1p construct. To be noted: Saccharomyces cerevisiae; construct corrected with linear PCR fragment. It is filed as cell-based, S. cerevisiae. As to the method:
as §1

Experiment [5] relates to AD-CDR1 (Cdr1p). The experiment is described as follows: Disk diffusion assay, AD-CDR1. It is filed as cell-based, S. cerevisiae. To be noted: AD-pABC as negative control, 30° C., 48 h. As to the method: (§2) The cells were spread on CSM-agar plates and exposed to the drugs or chemicals applied to filter disks and incubated at 30° C. for 48 h. The amounts of individual drugs are given in the Materials and Methods section of Example 3. Rhodamine 6G and rhodamine 123 were dissolved in ethanol and the other antifungals were dissolved in DMSO.
(§3) Drug susceptibility was measured using disk assays on CSM-URA plates (containing 1.5% w/v agar). Yeast cells (200 μl ml of 5×10^6 cells/ml) were spread on the plates. 10 μl of drug solution or solvent control were spotted onto sterile Whatman paper disks on the pre-spread plates. The following amounts (nmoles) of drugs were applied to individual disks: fluconazole, 633 (Pfizer Ltd., Sandwich, Kent, United Kingdom); itraconazole, 0.23 (Janssen); miconazole, 0.42 (Janssen); cycloheximide, 0.71 (Sigma); rhodamine 6G, 100 (Sigma, Penrose, Auckland, N. Z.); rhodamine 123, 125 (Sigma); cerulenin 4.5 (Sigma); 5-flucytosine 100 (Sigma); amphotericin B, 97 (E. R. Squibb & Sons, Princeton, N.J.); nystatin 65 (Sigma). Agar plates were incubated at 30° C. for 48 h or until clear growth inhibition zones were visible.
A general note: In agar diffusion tests the substance spreads into inoculated agar from a disc or well.

Another experiment deals with AD-ERG11 (Erg11p). Kind of experiment: Disk diffusion assay, AD-ERG11. The class given is cell-based, S. cerevisiae. To be noted: AD-pABC as negative control, 30° C., 48 h. As to the method:
as §2, §3

A further experiment deals with AD1002 cells. Kind of experiment: Glucose-dependent rhodamine 6G efflux. The class given is cell-based, S. cerevisiae. The settings on record: fluconazole 10 μM in preincubation and all later steps; 10 min after glucose.
A further experiment has as its system C. parapsilosis 425. Kind of experiment: Checkerboard chemosensitisation to fluconazole. It is filed as cell-based. The settings on record: KN20 0-80 μM and FCZ 32 μg/ml tested, no chemosensitisation. As to the method: Checkerboard drug susceptibility assays were used to measure the chemosensitisation of cells to fluconazole by test compounds such as Pdr5p inhibitors. […] Cell inocula, growth conditions and the optical determination of growth were identical to standard liquid MIC determinations. The assays were conducted in 6 by 6 well arrays centred in a 96 well microtitre plate using buffered CSM-URA medium at pH 7.0, with fluconazole and/or peptide included in each well at the indicated concentration.

In a further experiment the test system is AD1002. The experiment is described as follows: Disk drug susceptibility assay of chemosensitisation to fluconazole. The class given is cell-based, S. cerevisiae. To be noted: 5 μg/ml fluconazole, 12 nanomole peptide on disk. As to the method:
(A) Checkerboard drug susceptibility assay of AD1002. This assay was conducted as described in Materials and methods in the presence of the indicated concentrations of fluconazole and KN20. (B) Disk drug susceptibility assay of AD1002. This assay was conducted, as described in Materials and methods for Example 4, in the absence or presence of 5 μg/ml fluconazole, with (1) KN0 (12 nanomole), (2) KN20 (12 nanomole) or (0) control amounts of DMSO applied to the disks. (C) Checkerboard drug susceptibility assay of ATCC 10261. This assay was conducted, as described in Material and methods for Example 4, in the presence of the indicated concentrations of fluconazole and KN20. D indicates cell death as measured by a failure to recover any colony forming units when samples from microtitre plate wells were cultured on solid YPD medium.
Drug susceptibility was measured using disk assays on CSM-URA plates (containing 1.5% w/v agar). Plates were seeded with yeast cells suspended in top agar (5 ml, 10^5 cells/ml). For the uracil-dependent parental strain, agar was supplemented with 0.02% uridine. Five microliters of drug solution or solvent control were spotted onto sterile Whatman paper disks on the top agar. […]

Procedure for AD1002 cells: The efflux of rhodamine 6G at 30° C. was followed by direct measurement of fluorescence in cell supernatants following glucose (2 mM) addition to cell suspensions. […] The indicated concentrations of KN20 were added to AD124567 cells preloaded with rhodamine 6G, the cells were preincubated for 5 minutes at 30° C. and glucose added to commence rhodamine efflux.
A previously described method (Kolaczkowski, M et al. 1996) was adapted to measure rhodamine 6G (Sigma) efflux from whole cells. Yeast cells from exponentially growing cultures in YEPD (OD600 nm=0.5) were collected by centrifugation (3,000×g, 5 min, 20° C.) and washed three times with water. The washed cells were resuspended at a concentration of 0.5×10^6 to 1.0×10^7 cells per ml in HEPES-NaOH (50 mM, pH 7.0) containing 5 mM 2-deoxyglucose and 10 μM rhodamine 6G. In some experiments fluconazole (10 μM) was also added. Cell suspensions were incubated at 30° C. with shaking for 90 min to allow rhodamine accumulation under glucose starvation conditions. The starved cells were washed twice in 50 mM HEPES-NaOH pH 7.0, and portions (400 μl) incubated at 30° C. for 5 min before addition of glucose (final concentration 2 mM) to initiate rhodamine efflux. […] The rhodamine 6G fluorescence of samples was measured using a Cary Eclipse spectrofluorimeter (Varian Inc, Victora Australia). […]

On to `OC(Cn1cncn1)(Cn1cncn1)c1ccc(F)cc1F` [fluconazole], for which the MIC80 was found to be 0.625 µg/mL (≈ 2.04 µM) with S. cerevisiae AD1-8u^−; 30 µg/mL (≈ 98 µM) in experiment [1] (AD1002 expressing Cdr1p, 30° C., 48 h, pH 7.0); 64 µg/mL (≈ 209 µM) against S. cerevisiae AD1-8/CDR2. Further, in [1] (AD1002 relative to parental AD1-8u^−), the “fold increase in MIC” value is recorded as greater than 45 fold. Moreover, the minimal inhibitory concentration (MIC) (with AD-CDR1 (Cdr1p) [2]; in [3]; in experiment [4]) was 400 µg/mL (≈ 1310 µM) each time. Further, the “resistance/sensitivity in disk diffusion assay” value with AD-CDR1 (Cdr1p) [5] is “resistances”; with AD-ERG11 (Erg11p), “modest resistance”. In the experiment with AD1002 cells, the “reduction in the concentration of released rhodamine 6G” value turned out to be 32%.
Regarding “D-octapeptide NH2-Asn-Trp-Trp-Lys-Val-Arg-Arg-Arg-CONH2 with a single 4-methoxy-2,3,6-trimethylbenzenesulphonyl (Mtr) substituent on one tryptophan sidechain; Pdr5p inhibitor [KN20]”, in the experiment on C. parapsilosis 425, the “Fold-sensitisation by KN20 (For FCZ MIC)” value was 1^b fold. The “chemosensitisation to fluconazole in disk assay” value in the experiment on AD1002 was “chemosensitises”.
